IC50 data for 19 compounds are collected here from patent US10428080B2, “TBK/IKK inhibitor compounds and uses thereof” (Merck Patent GmbH, priority 2015, dated 2019).

One experiment deals with T1, TBK1 (Homo sapiens, UniProt Q9UHD2).
T1 sequence (Q9UHD2 1-729): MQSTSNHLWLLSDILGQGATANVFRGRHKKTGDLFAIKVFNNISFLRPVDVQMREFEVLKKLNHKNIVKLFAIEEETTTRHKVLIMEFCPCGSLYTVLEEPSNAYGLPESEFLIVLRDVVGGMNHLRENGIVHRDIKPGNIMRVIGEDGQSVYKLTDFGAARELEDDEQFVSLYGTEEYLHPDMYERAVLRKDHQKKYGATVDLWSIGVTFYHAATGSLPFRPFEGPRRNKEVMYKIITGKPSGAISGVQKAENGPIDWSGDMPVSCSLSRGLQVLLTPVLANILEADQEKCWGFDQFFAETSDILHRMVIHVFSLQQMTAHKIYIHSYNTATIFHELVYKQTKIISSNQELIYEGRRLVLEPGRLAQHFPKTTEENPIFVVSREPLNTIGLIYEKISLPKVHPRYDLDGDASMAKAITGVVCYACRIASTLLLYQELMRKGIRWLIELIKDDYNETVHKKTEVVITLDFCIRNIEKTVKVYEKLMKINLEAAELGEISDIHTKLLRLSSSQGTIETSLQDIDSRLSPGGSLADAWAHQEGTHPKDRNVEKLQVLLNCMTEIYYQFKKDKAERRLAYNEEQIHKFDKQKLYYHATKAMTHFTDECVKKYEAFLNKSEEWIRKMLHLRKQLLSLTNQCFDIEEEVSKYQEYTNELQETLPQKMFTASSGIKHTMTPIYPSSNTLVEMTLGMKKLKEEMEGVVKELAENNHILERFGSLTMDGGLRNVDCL
As to the kind of experiment: TBK Biochemical Assay. Particulars: read-out: TBK1 IC50. A digest of the protocol: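 TBK1 enzyme and substrate incubated with compounds (10-point 1:4 dilution, top 30 uM final, 1% DMSO) for 90 min at 25° C, then stopped. Substrate/product peaks read by microfluidic mobility-shift (Caliper LabChip); 10 uM staurosporine as full-inhibition control.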

The target in a further experiment is T2, IKKε (Homo sapiens, UniProt Q14164).
T2 sequence (Q14164 1-716): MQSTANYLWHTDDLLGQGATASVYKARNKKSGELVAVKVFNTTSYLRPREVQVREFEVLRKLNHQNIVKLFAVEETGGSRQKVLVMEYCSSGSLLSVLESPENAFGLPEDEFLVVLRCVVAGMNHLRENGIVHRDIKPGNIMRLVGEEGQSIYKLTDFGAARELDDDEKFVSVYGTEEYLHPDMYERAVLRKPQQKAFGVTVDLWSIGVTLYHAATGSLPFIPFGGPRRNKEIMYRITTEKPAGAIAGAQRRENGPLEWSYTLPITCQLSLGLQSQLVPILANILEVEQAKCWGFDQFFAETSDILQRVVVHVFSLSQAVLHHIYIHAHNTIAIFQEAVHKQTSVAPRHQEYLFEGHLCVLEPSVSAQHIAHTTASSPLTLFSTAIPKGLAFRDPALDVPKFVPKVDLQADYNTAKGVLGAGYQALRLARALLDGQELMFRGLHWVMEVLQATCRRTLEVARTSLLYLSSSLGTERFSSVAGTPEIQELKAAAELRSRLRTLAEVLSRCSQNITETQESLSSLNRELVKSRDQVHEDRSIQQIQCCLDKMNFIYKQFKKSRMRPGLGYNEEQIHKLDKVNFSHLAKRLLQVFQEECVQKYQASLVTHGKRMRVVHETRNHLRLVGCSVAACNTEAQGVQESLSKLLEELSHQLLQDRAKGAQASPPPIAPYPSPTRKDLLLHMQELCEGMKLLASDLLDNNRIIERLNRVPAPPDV
As to the kind of experiment: IKKe Biochemical Assay. Particulars: read-out: IKKε IC50. The method, boiled down:
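Recombinant IKKε and substrate were incubated with compound (10-point 1:4 series, top 30 uM final, 1% DMSO) for 90 min at 25° C, then stopped. Substrate-to-product conversion was read by LabChip microfluidic mobility shift; 10 uM staurosporine served as full-inhibition wells.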

Where a name gives a salt, the structure may show the parent alone.

The term IC50 denotes the point on the concentration scale where inhibition reaches its midpoint. On to `COc1cc(C(=O)N(C)CCO)cnc1-c1cc2ncc(C(C)C)c(-c3ccc(OC4CCOCC4)c(C#N)c3)c2o1` [Compound 333, 6-[7-[3-cyano-4-(oxan-4-yloxy)phenyl]-6-(propan-2-yl)furo[3,2-b]pyridin-2-yl]-N-(2-hydroxyethyl)-5-methoxy-N-methylpyridine-3-carboxamide], for which the IC50 on TBK1 and at IKKε was greater than 5000 nM each time.

As for `COc1cc(C(=O)N(C)C)cnc1-c1cc2ncc(Cl)c(-c3ccc(OC4CCOCC4)c(C#N)c3)c2o1` [Compound 336, 6-[6-chloro-7-[3-cyano-4-(oxan-4-yloxy)phenyl]furo[3,2-b]pyridin-2-yl]-5-methoxy-N,N-dimethylpyridine-3-carboxamide hydrochloride], the IC50 on TBK1 and at IKKε was 1000 to 5000 nM in each case.

With `COc1cc(C(=O)N(C)C)cnc1-c1cc2ncc(OC)c(-c3ccc(NC4CCOCC4)c(C#N)c3)c2o1` [Compound 340, 6-(7-[3-cyano-4-[(oxan-4-yl)amino]phenyl]-6-methoxyfuro[3,2-b]pyridin-2-yl)-5-methoxy-N,N-dimethylpyridine-3-carboxamide], the IC50 on TBK1 is 100 to 1000 nM; at IKKε, 1000 to 5000 nM.

For the compound `COc1cc(C(=O)N(C)CCO)cnc1-c1cc2ncc(C3CC3)c(-c3ccc(OC4CCOCC4)c(C#N)c3)c2o1` [Compound 341, 6-[7-[3-cyano-4-(oxan-4-yloxy)phenyl]-6-cyclopropylfuro[3,2-b]pyridin-2-yl]-N-(2-hydroxyethyl)-5-methoxy-N-methylpyridine-3-carboxamide hydrochloride], the IC50 on TBK1 and on IKKε was greater than 5000 nM in each case.

As to `COc1cc(C(=O)N(C)CCO)cnc1-c1cc2ncc(Cl)c(-c3ccc(OC4CCOCC4)c(C#N)c3)c2o1` [Compound 342, 6-[6-chloro-7-[3-cyano-4-(oxan-4-yloxy)phenyl]furo[3,2-b]pyridin-2-yl]-N-(2-hydroxyethyl)-5-methoxy-N-methylpyridine-3-carboxamide hydrochloride], the IC50 at TBK1 and at IKKε was 1000 to 5000 nM throughout.

Regarding `COc1cc(C(=O)N(C)CCO)cnc1-c1cc2ncc(OC)c(-c3ccc(OC4CCOCC4)c(C#N)c3)c2o1` [Compound 343, 6-[7-[3-cyano-4-(oxan-4-yloxy)phenyl]-6-methoxyfuro[3,2-b]pyridin-2-yl]-N-(2-hydroxyethyl)-5-methoxy-N-methylpyridine-3-carboxamide], the IC50 at TBK1 and at IKKε was 100 to 1000 nM throughout.

Regarding `COc1cc(C(=O)N(C)C)cnc1-c1cc2ncc(F)c(-c3ccc(OC4CCOCC4)c(C#N)n3)c2o1` [Compound 351, 6-[7-[6-cyano-5-(oxan-4-yloxy)pyridin-2-yl]-6-fluorofuro[3,2-b]pyridin-2-yl]-5-methoxy-N,N-dimethylpyridine-3-carboxamide hydrochloride], the IC50 at TBK1 and at IKKε was 100 to 1000 nM in each case.

As to `COc1cc(C(=O)N(C)CCO)cnc1-c1cc2ncc(F)c(-c3ccc(OC4CCOCC4)c(C#N)n3)c2o1` [Compound 354, 6-[7-[6-cyano-5-(oxan-4-yloxy)pyridin-2-yl]-6-fluorofuro[3,2-b]pyridin-2-yl]-N-(2-hydroxyethyl)-5-methoxy-N-methylpyridine-3-carboxamide hydrochloride], the IC50 lay in the range of 100 to 1000 nM on TBK1 and 1000 to 5000 nM at IKKε.

Consider `COc1cc(C(=O)N(C)C)cnc1-c1cc2ncc(C3CC3)c(-c3ccc(OC4CCOCC4)c(C#N)n3)c2o1` [Compound 357, 6-[7-[6-cyano-5-(oxan-4-yloxy)pyridin-2-yl]-6-cyclopropylfuro[3,2-b]pyridin-2-yl]-5-methoxy-N,N-dimethylpyridine-3-carboxamide hydrochloride], for which the IC50 at TBK1 and on IKKε was greater than 5000 nM each time.

For `COc1cc(C(=O)N(C)C)cnc1-c1cc2ncc(OC)c(-c3ccc(NC4CCOCC4)c(C#N)n3)c2o1` [Compound 358, 6-(7-[6-cyano-5-[(oxan-4-yl)amino]pyridin-2-yl]-6-methoxyfuro[3,2-b]pyridin-2-yl)-5-methoxy-N,N-dimethylpyridine-3-carboxamide], the IC50 at TBK1 and on IKKε was 1000 to 5000 nM in each case.

As to `COc1cc(C(=O)N(C)CCO)cnc1-c1cc2ncc(C)c(-c3ccc(OC4CCOCC4)c(C#N)n3)c2o1` [Compound 360, 6-[7-[6-cyano-5-(oxan-4-yloxy)pyridin-2-yl]-6-methylfuro[3,2-b]pyridin-2-yl]-N-(2-hydroxyethyl)-5-methoxy-N-methylpyridine-3-carboxamide hydrochloride], the IC50 on TBK1 and on IKKε was 100 to 1000 nM each time.

In the case of `COc1cc(C(=O)N(C)CCO)cnc1-c1cc2ncc(OC)c(-c3ccc(OC4CCOCC4)c(C#N)n3)c2o1` [Compound 362, 6-[7-[6-cyano-5-(oxan-4-yloxy)pyridin-2-yl]-6-methoxyfuro[3,2-b]pyridin-2-yl]-N-(2-hydroxyethyl)-5-methoxy-N-methylpyridine-3-carboxamide], the IC50 at TBK1 and at IKKε was 100 to 1000 nM each time.

For the compound `COc1cc(C(=O)N(C)CCO)cnc1-c1cc2ncc(C3CC3)c(-c3ccc(OC4CCOCC4)c(C#N)n3)c2o1` [Compound 363, 6-[7-[6-cyano-5-(oxan-4-yloxy)pyridin-2-yl]-6-cyclopropylfuro[3,2-b]pyridin-2-yl]-N-(2-hydroxyethyl)-5-methoxy-N-methylpyridine-3-carboxamide hydrochloride], the IC50 on TBK1 and at IKKε was greater than 5000 nM in each case.

Regarding `COc1cc(C(=O)N(C)CCO)ncc1-c1cc2nccc(-c3cc(C#N)c(OC4CCOCC4)cn3)c2o1` [Compound 377, 5-[7-[4-cyano-5-(oxan-4-yloxy)pyridin-2-pyridin-2-yl]furo[3,2-b]pyridin-2-yl]-N-(2-hydroxyethyl)-4-methoxy-N-methylpyridine-2-carboxamide], the IC50 at TBK1 and on IKKε was 100 to 1000 nM in each case.

For the compound `COc1cc(C(=O)N2CCCCC2)ncc1-c1cc2nccc(-c3cc(C#N)c(OC4CCOCC4)cn3)c2o1` [Compound 383, 2-(2-[4-methoxy-6-[(piperidin-1-yl)carbonyl]pyridin-3-yl]furo[3,2-b]pyridin-7-yl)-5-(oxan-4-yloxy)pyridine-4-carbonitrile], the IC50 on TBK1 and on IKKε was 100 to 1000 nM throughout.

Regarding `COc1cc(C(=O)N(C)C)ncc1-c1cc2nccc(-c3cc(C#N)c(OC4CCOCC4)cn3)c2o1` [Compound 386, 5-[7-[4-cyano-5-(oxan-4-yloxy)pyridin-2-yl]furo[3,2-b]pyridin-2-yl]-4-methoxy-N,N-dimethylpyridine-2-carboxamide], the IC50 on TBK1 and at IKKε was 100 to 1000 nM throughout.

On to `COc1cc(-c2cc3nccc(-c4ccc(NC5CCOCC5)c(C#N)c4)c3o2)ncc1C(=O)N(C)C` [Compound 392, 6-(7-[3-cyano-4-[(oxan-4-yl)amino]phenyl]furo[3,2-b]pyridin-2-yl)-4-methoxy-N,N-dimethylpyridine-3-carboxamide], for which the IC50 on TBK1 and at IKKε was 100 to 1000 nM in each case.

As to `COc1cc(C(=O)N(C)C)cnc1-c1cc2nccc(-c3ncc(OC4CCOCC4)c(C#N)n3)c2o1` [Compound 396, 6-[7-[4-cyano-5-(oxan-4-yloxy)pyrimidin-2-yl]furo[3,2-b]pyridin-2-yl]-5-methoxy-N,N-dimethylpyridine-3-carboxamide], the IC50 on TBK1 and at IKKε was 100 to 1000 nM each time.

`COc1cc(C(=O)N(C)C)ccc1-c1cc2nccc(Nc3ccc(OC4CCOCC4)c(C#N)c3)c2o1` [Compound 399, 4-(7-[[3-cyano-4-(oxan-4-yloxy)phenyl]amino]furo[3,2-b]pyridin-2-yl)-3-methoxy-N,N-dimethylbenzamide]: the IC50 at TBK1 and at IKKε was greater than 5000 nM throughout.
